Consider ten compounds from US8735395B2, “Protease inhibitors” (Medivir AB, priority 2008, dated 2014).

Series [1] addresses human recombinant cathepsin K (Homo sapiens (Human), UniProt P43235). The series can be described thus: Determination of cathepsin K proteolytic catalytic activity (Ki). The series is classed as biochemical. The procedure: Determination of Cathepsin K Proteolytic Catalytic Activity
Convenient assays for cathepsin K are carried out using human recombinant enzyme, such as that described in PDB.
The recombinant cathepsin K can be expressed in a variety of commercially available expression systems including E coli, Pichia and Baculovirus systems. The purified enzyme is activated by removal of the prosequence by conventional methods.
The enzyme concentration used was 5 nM. The stock substrate solution was prepared at 10 mM in DMSO. Screens were carried out at a fixed substrate concentration of 60 μM and detailed kinetic studies with doubling dilutions of substrate from 250 μM. The total DMSO concentration in the assay was kept below 3%. All assays were conducted at ambient temperature. Product fluorescence (excitation at 390 nm, emission at 460 nm) was monitored with a Labsystems Fluoroskan Ascent fluorescent plate reader. Product progress curves were generated over 15 minutes following generation of AMC product.
(§1) Potential inhibitors are screened using the above assay with variable concentrations of test compound. Reactions were initiated by addition of enzyme to buffered solutions of substrate and inhibitor. Ki values were calculated according to equation 1.
where v0 is the velocity of the reaction, V is the maximal velocity, S is the concentration of substrate with Michaelis constant of KM, and I is the concentration of inhibitor.

For the next series, the target named is human cathepsin S (Homo sapiens (Human), UniProt P25774). As to the kind of experiment: Cathepsin S Ki determination. The series is classed as biochemical. As for the experimental part:
280 μl/well of 12.5% DMSO are added to rows B-H of two columns of a 96 deep well polypropylene plate. […] 200 μl/well of assay buffer is added to columns 1 and 6. […] Mix row A using a multichannel pipette and double dilute to row G. Mix row H and read in the fluorescent spectrophotometer. […] The second test compound is added to column 6 of the top row, the third to column 1 of the second row etc. Add 1 μl of comparator to column 6 of the bottom row. Mix column 1 and double dilute to column 5. Mix column 6 and double dilute to column 10. Using an 8-channel multistepping pipette set to 5×10 μl, distribute 10 μl/well of substrate to the 384 well assay plate. Distribute the first column of the substrate dilution plate to all columns of the assay plate starting at row A. The tip spacing of the multichannel pipette will correctly skip alternate rows. Distribute the second column to all columns starting at row B. Using a 12-channel multistepping pipette set to 4×10 μl, distribute 10 μl/well of inhibitor to the 384 well assay plate. Distribute the first row of the inhibitor dilution plate to alternate rows of the assay plate starting at A1. The tip spacing of the multichannel pipette will correctly skip alternate columns. […] Mix 20 ml assay buffer and 20 μl 1M DTT. […] Using the a distributor such as a Multidrop 384, add 30 μl/well to all wells of the assay plate and read in fluorescent spectrophotomoter such as an Ascent. Fluorescent readings, (excitation and emission wavelengths 390 nm and 460 nm respectively, set using bandpass filters) reflecting the extent of enzyme cleavage of the fluorescent substrate, notwithstanding the inhibitor, are linear rate fitted for each well. […] Potential inhibitors are screened using the above assay with variable concentrations of test compound. Reactions were initiated by addition of enzyme to buffered solutions of substrate and inhibitor.

In another series the target is human cathepsin L (Homo sapiens (Human), UniProt P07711). As to the kind of experiment: Cathepsin L Ki. The series is classed as biochemical. The procedure: The procedure above with the following amendments is used for the determination of Ki for cathepsin L.
Sequence of human cathepsin L (P07711 114-333): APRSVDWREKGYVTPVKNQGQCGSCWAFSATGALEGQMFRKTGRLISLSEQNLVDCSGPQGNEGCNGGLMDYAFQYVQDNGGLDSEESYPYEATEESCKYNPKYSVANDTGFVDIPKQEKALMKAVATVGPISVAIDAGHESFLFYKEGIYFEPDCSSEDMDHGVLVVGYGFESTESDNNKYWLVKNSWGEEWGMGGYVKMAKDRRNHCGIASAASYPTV
The enzyme is commercially available human cathepsin L (for example Calbiochem). The substrate is H-D-Val-Leu-Lys-AMC available from Bahcem. The assay buffer is 100 mM sodium acetate 1 mM EDTA, pH5.5) The DMSO stock (10 mM in 100% DMSO) is diluted to 10% in assay buffer. Enzyme is prepared at 5 nM concentration in assay buffer plus 1 mM dithiothreitol just before use. 2 ul of 10 mM inhibitor made up in 100% DMSO is dispensed into row A. 10 μl of 50 μM substrate (=1/200 dilution of 10 mM stock in DMSO, diluted in assay buffer)
as §1

A short description of series [2]: Metabolic stability in whole blood (CLint). The series is classed as in vitro ADME. As for the experimental part: (§2) Alternatively, an analogous stability assay is carried out in human or monkey whole blood and/or commercially available liver microsomes, such as XEN 025.
Series [3] can be described thus: Metabolic stability in liver microsomes (HLM CLint). The series is classed as in vitro ADME. Particulars: human. As for the experimental part:
as §2

The nature of series [4]: In vivo mouse PK, oral administration (FIG. 1). As to conditions: male C57BI mice, oral 60 μmol/kg in 1% Methocel A4C; compared with Example 2 of WO2008 007107. The source says:
FIG. 1 depicts plasma concentration against time for male C57BI mice orally administered a compound of the invention or a compound of the prior art.
Various embodiments of the invention will now be described by way of illustration only with reference to the following Examples and FIG. 1 which depicts plasma concentration against time for male C57BI mice orally administered a compound of the invention or a compound of the prior art.

Another series can be described thus: Caco-2 permeability. As to conditions: human.
For series [5] the following is noted: reference markers for the Caco-2 assay; cited from earlier work.

pKi: −log10 of the molar value.

Sequence of human cathepsin S (P25774 115-331): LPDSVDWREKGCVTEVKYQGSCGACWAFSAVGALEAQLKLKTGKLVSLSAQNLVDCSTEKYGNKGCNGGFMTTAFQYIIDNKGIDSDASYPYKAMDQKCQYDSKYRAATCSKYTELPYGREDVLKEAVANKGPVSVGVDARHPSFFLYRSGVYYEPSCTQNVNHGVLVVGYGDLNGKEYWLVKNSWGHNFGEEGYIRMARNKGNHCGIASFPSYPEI
Sequence of human recombinant cathepsin K (P43235 115-329): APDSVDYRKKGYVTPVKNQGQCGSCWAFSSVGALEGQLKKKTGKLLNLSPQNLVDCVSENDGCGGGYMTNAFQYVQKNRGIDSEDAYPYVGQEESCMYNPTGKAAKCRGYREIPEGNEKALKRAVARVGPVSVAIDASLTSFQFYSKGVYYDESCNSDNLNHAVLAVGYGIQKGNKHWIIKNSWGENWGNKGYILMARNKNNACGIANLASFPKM
Experimental for Caco-2 cells: (§3) This experiment measures transport of inhibitors through the cells of the human gastroenteric canal. The assay uses the well known Caco-2 cells with a passage number between 40 and 60.
(§4) The basolateral and the apical wells will contain 1.5 mL and 0.4 mL transport buffer (TB), respectively, and the standard concentration of the tested substances is 10 μM. Furthermore all test solutions and buffers will contain 1% DMSO. Prior to the experiment the transport plates are pre-coated with culture medium containing 10% serum for 30 minutes to avoid nonspecific binding to plastic material. After 21 to 28 days in culture on filter supports the cells are ready for permeability experiments.
(§5) In ASB screening the TB in basolateral well also contains 1% Bovine Serum Albumin.
(§6) 0.5 mL transport buffer (HBSS, 25 mM MES, pH 6.5) is added to the inserts and the cell monolayers equilibrated in the transport buffer system for 30 minutes at 37° C. in a polymix shaker. After being equilibrated to the buffer system the Transepithelial electrical resistance value (TEER) is measured in each well by an EVOM chop stick instrument. […]
(§7) 300 μL will be taken from the basolateral (receiver) wells at each scheduled time point and the post value of TEER is measured at the end the experiment. […]
FAcum is calculated from: […]
(§8) The determination of permeability coefficients (Papp, cm/s) are calculated from: […]
Experimental for Caco-2 permeability: as §3, §4, §5, §6, §7
FAcum is calculated from: […]
as §8

With `C#C[C@@H]1CN(C(=O)[C@H](CC(C)C)NC(=O)c2ccc(-c3csc(N4CCN(C)CC4)n3)cc2)[C@@H]2C(=O)CO[C@H]12` [Example 1, N-[1-6-(ethynyl-3-oxo-hexahydro-furo[3,2-b]pyrrole-4-carbonyl)-3-methyl-butyl]-4-[2-(4-methyl-piperazin-1-yl)thiazol-4-yl]-benzamide], the pKi is greater than 7.30 in [1] (Test 1, class symbols); 8.80 in series [1] (Test 2 or unnumbered test); less than 5.00 on human cathepsin S (Test 1, class symbols); 4.60 at human cathepsin S (Test 2 or unnumbered test); 5.30 to 6.00 at human cathepsin L (Test 1, class symbols); 5.70 at human cathepsin L (Test 2 or unnumbered test). For the same compound, the microsomal CLint is 3 µL/min/mg in [2] (whole blood) and 16 µL/min/mg in series [3].

Consider `C#C[C@@H]1CN(C(=O)[C@H](CC(C)C)NC(=O)c2ccc(-c3nc(N4CCN(C)CC4)sc3F)cc2)[C@@H]2C(=O)CO[C@H]12` [Example 2, N-[1-6-(ethynyl-3-oxo-hexahydro-furo[3,2-b]pyrrole-4-carbonyl)-3-methyl-butyl]-4-[5-fluoro-2-(4-methyl-piperazin-1-yl)thiazol-4-yl]-benzamide], for which the pKi is greater than 7.30 in series [1] (Test 1, class symbols); 8.96 in [1] (Test 2 or unnumbered test); less than 5.00 at human cathepsin S (Test 1, class symbols); 4.68 on human cathepsin S (Test 2 or unnumbered test); 5.30 to 6.00 on human cathepsin L (Test 1, class symbols); 5.77 on human cathepsin L (Test 2 or unnumbered test). Also, the “in vivo exposure (Cmax or AUC)” value in [4] is “very much greater”. In the series “Caco-2 permeability”, this compound returned a Papp at 120 min, 10 µM of 9.1 ×10⁻⁶ cm/s.

For the compound `C#C[C@@H]1CN(C(=O)[C@H](CC(C)C)NC(=O)c2ccc(-c3csc(N4CCN(C)CC4)n3)c(F)c2)[C@@H]2C(=O)CO[C@H]12` [Example 3, N-[1-6-(ethynyl-3-oxo-hexahydro-furo[3,2-b]pyrrole-4-carbonyl)-3-methyl-butyl]-3-fluoro-4-[2-(4-methyl-piperazin-1-yl)thiazol-4-yl]-benzamide], the negative logarithm of the Ki (pKi) in [1] (Test 1, class symbols) was greater than 7.30; in [1] (Test 2 or unnumbered test), 8.40; on human cathepsin L (Test 1, class symbols), 6.00 to 6.30; on human cathepsin L (Test 2 or unnumbered test), 5.85.

In the case of `CC(C)=C[C@@H]1CN(C(=O)[C@H](CC(C)C)NC(=O)c2ccc(-c3nc(N4CCN(C)CC4)sc3F)cc2)[C@@H]2C(=O)CO[C@H]12` [Example 4, N-[1-6-(dimethylvinyl-3-oxo-hexahydro-furo[3,2-b]pyrrole-4-carbonyl)-3-methyl-butyl]-4-[5-fluoro-2-(4-methyl-piperazin-1-yl)thiazol-4-yl]-benzamide], the values for the pKi (in series [1] (Test 2 or unnumbered test); on human cathepsin L (Test 2 or unnumbered test)) were 8.57 and 6.52, respectively.

As for `N[C@@H](Cc1ccccc1)C(=O)O` [L-Phenylalanine], the “% absorption in man” value in series [5] is given as 100%.

Consider `OC[C@@H](O)[C@@H](O)[C@H](O)[C@H](O)CO` [Mannitol], for which the “% absorption in man” value in series [5] is 16%.

For the compound `CN(Cc1cnc2nc(N)nc(N)c2n1)c1ccc(C(=O)N[C@@H](CCC(=O)O)C(=O)O)cc1` [Methotrexate], the “% absorption in man” value in [5] is reported as 20%.

`CC(C)C[C@H](NC(=O)c1ccc(-c2csc(N3CCN(C)CC3)n2)cc1)C(=O)N1C[C@@H](C=C(Br)Br)[C@H]2OCC(=O)[C@H]21` [Ref Ex 9]: the pKi on human cathepsin S (Test 2 or unnumbered test) is 5.21.

On to `CC(C)C[C@H](NC(=O)c1ccc(-c2csc(N3CCN(C)CC3)n2)cc1)C(=O)N1C[C@@H](C)[C@H]2OCC(=O)[C@H]21` [comparative example], for which the “estimated / calculated whole blood half life” value in series [2] (calculated from whole blood CLint) is listed as “little over an hour”. In series [2] (whole blood), this compound had a microsomal CLint of 9 µL/min/mg and a whole blood CLint value of 9 µL/min/mg. Moreover, the intrinsic clearance (microsomal CLint) in series [3] came out at 49 µL/min/mg.

In the series on Caco-2 cells, “N—((S)-1-((3aS,6R,6aS)-6-methoxy-oxodihydro-2H-furo[3,2-b]pyrrol-4(5H,6H,6aH)-yl)-4-methyl-oxopentan-2-yl)-4-(2-(4-methylpiperazine-1-yl)thiazol-4-yl)benzamide” had a papp value of 9e-07 cm/s.
